Experimental data published in ChEMBL document CHEMBL1201862, “PubChem BioAssay data set” (2004).
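Results reflect a 48-hour exposure of cells in 96-well plates to compound at five concentrations. GI50 is the concentration that inhibits growth by half.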 The source made the active and inactive calls. Rule as the data show it: active = GI50 up to about 1.1 µM and inactive = higher.

Legend:
Assay in all cases: NCI tumour cell line growth inhibition, 48 h
ACHN = tested on: ACHN
CAKI-1 = tested on: CAKI-1
CCRF-CEM = tested on: CCRF-CEM
EKVX = tested on: EKVX
HL-60 = tested on: HL-60
KM12 = tested on: KM12
LOX IMVI = tested on: LOX IMVI
MOLT-4 = tested on: MOLT-4
NCI-H226 = tested on: NCI-H226
NCI-H460 = tested on: NCI-H460
OVCAR-3 = tested on: OVCAR-3
RXF 393 = tested on: RXF 393
SF-295 = tested on: SF-295
SK-MEL-28 = tested on: SK-MEL-28
SK-MEL-5 = tested on: SK-MEL-5
SW-620 = tested on: SW-620
TK-10 = tested on: TK-10
U-251 = tested on: U-251
UACC-257 = tested on: UACC-257
UO-31 = tested on: UO-31

Measured: GI50

O=C1c2ccccc2C(=O)N1/N=C1/SC(=N\c2ccccc2)/C(=N/c2ccccc2)N1c1ccccc1
inactive: ACHN > 66.4 µM | CAKI-1 > 100 µM | CCRF-CEM > 51.3 µM | EKVX > 76.9 µM | HL-60 > 40.4 µM | KM12 > 38.8 µM | LOX IMVI > 100 µM | MOLT-4 > 65.8 µM | NCI-H226 > 71.3 µM | NCI-H460 > 61.8 µM | OVCAR-3 > 100 µM | RXF 393 4.47 µM | SF-295 26.4 µM | SK-MEL-28 > 35.1 µM | SK-MEL-5 > 39 µM | SW-620 > 61.7 µM | TK-10 > 58.5 µM | U-251 24.9 µM | UACC-257 > 100 µM | UO-31 25.7 µM

O=C(O)CN(CC(=O)O)C(C(=O)O)c1ccccc1 (stereo not given)
inactive: ACHN > 100 µM | CAKI-1 > 100 µM | CCRF-CEM > 100 µM | EKVX > 100 µM | HL-60 > 100 µM | KM12 > 100 µM | LOX IMVI > 100 µM | MOLT-4 > 100 µM | NCI-H226 > 100 µM | NCI-H460 > 100 µM | OVCAR-3 > 100 µM | RXF 393 > 100 µM | SF-295 > 100 µM | SK-MEL-28 > 100 µM | SK-MEL-5 > 100 µM | SW-620 > 100 µM | TK-10 > 100 µM | U-251 > 100 µM | UACC-257 > 100 µM | UO-31 > 100 µM

C=CC(C)C1(CCCOCc2ccccc2)C(=S)N2CCC3(CC24CCCC14)OCCO3 (stereo not given)
inactive: ACHN 9.84 µM | CAKI-1 > 100 µM | CCRF-CEM 6.41 µM | EKVX > 100 µM | HL-60 1.9 µM | KM12 12.9 µM | LOX IMVI 54.3 µM | MOLT-4 3.93 µM | NCI-H226 36.6 µM | NCI-H460 26.3 µM | OVCAR-3 6.76 µM | RXF 393 6.46 µM | SF-295 53.2 µM | SK-MEL-28 14.3 µM | SK-MEL-5 5.61 µM | SW-620 31.6 µM | TK-10 97.3 µM | U-251 34.1 µM | UACC-257 9.68 µM | UO-31 28.8 µM

Cc1ccc(/N=N/C(=N\NC(=O)c2ccc(C)cc2)c2ccc(N(CCC#N)CCC#N)cc2C)cc1
inactive: ACHN 46.7 µM | CAKI-1 67 µM | CCRF-CEM 49.4 µM | EKVX 43 µM | HL-60 17.4 µM | KM12 12.2 µM | LOX IMVI 35.7 µM | MOLT-4 39.4 µM | NCI-H226 20.7 µM | NCI-H460 23.8 µM | OVCAR-3 26.2 µM | RXF 393 44.8 µM | SF-295 38.4 µM | SK-MEL-28 10.3 µM | SK-MEL-5 4.69 µM | SW-620 39 µM | TK-10 45.5 µM | U-251 14.8 µM | UACC-257 27.9 µM | UO-31 > 100 µM
